According to patent US7432403B2, “Cyclic palladium compounds having coordinated thereto bis (diphenylphosphine) ferrocene ligands which inhibit the activity of proteins and enzymes and treatment of diseases and disorders associated therewith” (Fundação De Amparo À Pesquisa Do Estado de São Paulo, priority 2002, dated 2008):
Where two headings read alike, the source gives them in different places. Each block holds one compound with its values, some of them ahead of it.

Legend:
[1] = Evaluation of acute toxicity, fixed dosage test, 14-day observation; type: in vivo, mice; settings: one dose intraperitoneally
Experimental: The concentration of cyclopalladated compounds of the invention as used in this study is being determined from the realization of a fixed dosage test, in which the substance to be tested is given to mice under specific dosage, which is selected from previously fixed dosages, according to classifications from ruling institutions, for which the maximum concentration to be tested should not surpass 2000 mg/kg.
After drug administration, a 14-day observation period follows. The dosage under which signs of acute toxicity are observed, such as changes in hair, mucosa and skin, as well as the occurrence of diarrhea and convulsions, conjunctivitis, excitement or slow movements, is used to graduate or classify the tested material.
Assayed compounds are diluted in saline containing 10% DMSO and then 0.2 ml of that solution are intraperitoneally given to the animals. Therefore, groups of 10 animals (5 males and 5 females) were treated with various doses of the compounds being studied. The control animals received only saline with 10% DMSO. After the end of the treatment, the animals remained in observation for a period of 14 days.

Ehrlich's ascitic tumor = assay: Life extension of animals with Ehrlich's ascitic tumor; type: in vivo, mice; settings: 1 mg/kg subcutaneously, four consecutive days, start 72 hours after inoculation
Text: With the purpose to observe a possible protection of treated animals with the compounds of the invention, a life extension curve was drafted, considering animals with the Ehrlich's ascitic tumor, be them treated or not.
The Life Extension Curve of Kaplan-Meier was used to analyse the possibility of survival. The comparison between both groups (holders of tumor vs. holders of tumor/treated) was made by the Log-Rank method—non-parametrical procedures (Cox-Mantel). ANOVA variation analysis was used for the analysis of various groups. In case of significant difference, the Tukey's test was applied. In cases in which the number of samples between two groups was small, the Wilcoxon's non-parametrical test was used.
To develop the Ehrlich's ascitic tumor, mice are intraperitoneally inoculated with 0.1 ml of a suspension of tumor cells containing 10^6 cells, originating from the peritoneal cavity of holder mice. After taking out the ascitic liquid from the peritoneum of mice holding the tumor of Ehrlich, the number and viability of cells are determined by using trypan blue colorant in a Neubauer chamber.
With the purpose to observe possible protection of treated animals with the compounds [Pd2(C^2,N-S-dmpa)2(μ-dpp)Cl2] e [Pd2(C^2,N-S-dmpa)2(μ-dppf)(N3)2] (as per scheme C shown in generic structures), a life extension curve was made. […]

HL60 cells = assay: Morphological aspect of treated HL60 cells; type: cell-based; settings: 72 hours
Text: From the results obtained by experiments as illustrated by Example 11, we verified cytotoxic activity of the cyclopalladated compounds in both studied lines, with results obtained from the two compounds being similar (FIGS. 10 and 11). […] On the other hand, the morphological aspect of leukemic cells HL60 treated with cyclopalladated compounds is that of cells in scheduled cell death process or apoptosis, as illustrated by FIG. 12.

ACE = target: T1, ACE (Mus musculus, UniProt P09470); settings: administration one hour after radiation; cited from earlier work
T1 construct: host or cells: mouse plasma, in vivo
T1 sequence (P09470 35-1312): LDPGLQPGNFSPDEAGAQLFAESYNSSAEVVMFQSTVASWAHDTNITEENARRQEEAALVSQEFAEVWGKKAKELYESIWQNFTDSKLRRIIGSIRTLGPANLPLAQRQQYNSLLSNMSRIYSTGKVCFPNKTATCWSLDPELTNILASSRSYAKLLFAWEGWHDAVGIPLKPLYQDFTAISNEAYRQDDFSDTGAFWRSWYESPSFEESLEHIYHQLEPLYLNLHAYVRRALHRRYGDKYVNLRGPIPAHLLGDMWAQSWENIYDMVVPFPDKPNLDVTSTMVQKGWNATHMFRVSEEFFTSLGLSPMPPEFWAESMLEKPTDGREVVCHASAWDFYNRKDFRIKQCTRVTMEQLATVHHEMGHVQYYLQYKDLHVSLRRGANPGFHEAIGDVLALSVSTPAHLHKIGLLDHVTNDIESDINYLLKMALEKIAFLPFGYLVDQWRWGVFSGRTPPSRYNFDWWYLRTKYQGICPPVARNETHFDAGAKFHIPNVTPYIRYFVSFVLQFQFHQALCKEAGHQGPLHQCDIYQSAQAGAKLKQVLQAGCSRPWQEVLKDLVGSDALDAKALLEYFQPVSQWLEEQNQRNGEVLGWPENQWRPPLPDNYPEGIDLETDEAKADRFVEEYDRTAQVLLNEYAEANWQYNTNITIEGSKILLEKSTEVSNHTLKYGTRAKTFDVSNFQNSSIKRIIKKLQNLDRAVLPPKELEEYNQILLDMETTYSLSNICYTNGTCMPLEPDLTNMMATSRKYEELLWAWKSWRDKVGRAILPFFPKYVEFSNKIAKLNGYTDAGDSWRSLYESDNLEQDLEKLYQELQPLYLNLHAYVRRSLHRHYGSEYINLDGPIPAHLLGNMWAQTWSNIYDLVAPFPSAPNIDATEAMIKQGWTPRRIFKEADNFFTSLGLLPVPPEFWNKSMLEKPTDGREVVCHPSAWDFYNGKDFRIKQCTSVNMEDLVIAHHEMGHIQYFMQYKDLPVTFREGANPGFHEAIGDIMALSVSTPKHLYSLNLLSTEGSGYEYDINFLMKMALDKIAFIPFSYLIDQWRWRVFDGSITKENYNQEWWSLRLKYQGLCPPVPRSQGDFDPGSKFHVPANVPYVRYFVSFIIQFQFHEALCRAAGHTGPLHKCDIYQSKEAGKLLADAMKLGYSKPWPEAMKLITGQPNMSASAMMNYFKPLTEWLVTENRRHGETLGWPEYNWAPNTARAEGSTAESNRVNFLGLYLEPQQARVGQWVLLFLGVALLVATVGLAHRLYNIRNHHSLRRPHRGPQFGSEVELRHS

Cathepsin B = target: T2, Cathepsin B (Homo sapiens, UniProt P07858); assay: Cathepsin B endopeptidase activity, hydrolysis of fluorogenic substrate Z-Phe-Arg-MCA (spectrofluorimetry); type: biochemical; settings: for Ki: pH 6.4, 37° C., substrate Z-Phe-Arg-MCA
T2 construct: purchased Calbiochem Co
Experimental: Cathepsin B and papain were supplied by the company Calbiochem Co. and the concentration of active enzymes was determined by titulation using the cysteine-protease inhibitor known as E-64. Cathepsin B and papain were packed at 4° C. within 50 mM in sodium acetate buffer (pH 5.0) containing 10 μM MMTS. The fluorogenic substrate amidomethylcoumaryl Z-Phe-Arg-MCA, tripsin and the irreversible papain inhibitor E-64 were supplied by Sigma.
The influence of the organometal compounds on the activity of endopeptidase cathepsin B was determined by spectrofluorimetry, using the fluorogenic substrate Z-Phe-Arg-MCA. This peptide is a good substrate for cathepsin B with kcat/Ks=4.5 10^5 M^−1.s^−1 and was chosen so to locate residues Phe and Arg in P2 and P1, respectively. The substrate covers the main linkage sites S2, S1 and S′1 with cysteine-proteases similar to papain (Turk, D. et al, Revised definition of substrate binding sites of papain-like cysteine proteases, J. Biol. Chem.; 1998, 379, 137-147).
The intensities of fluorescence signals were monitored by a thermostatic spectrofluorimetry Hitachi F-2000. Wavelength was calibrated at 380 nm for excitation and 440 nm for emission. The activation of the enzyme was made by incubation for five minutes at 37° C. in a buffer solution of 50 mM sodium phosphate (pH 6.4) containing NaCl 200 mM, EDTA 1 mM and DTT 2 mM. Measurements were taken in the same activation buffer of cathepsin B and kynetic standards were set up by taking the initial hydrolysis rate under various concentrations of the substrate in the presence or absence of different concentrations of organometal compounds. The results were analysed by non-linear regression by using the software GraFit 3.01 (Erithacus Software Ltd.).
The Kynetic model of Scheme 1 describes the effect of heparin over the hydrolysis of Z-Phe-Arg-MCA by cathepsin B:
In which S represents the substrate Z-Phe-Arg-MCA; I represents the cyclometal compound; E represents cathepsin B; KS represents the dissociation constant of the substrate; KI represents the apparent dissociation constant of the organometal; α is a disturbance standard of KS; and β is a disturbance standard of Vmax (kcat), with the standards being in accordance to the equation: […]
Data were treated according to Equation 1, by using non-linear regression and the values for the constants were calculated. […] The hydrolysis rate of the second order substrates was the same, kcat/Ks=4.5 10^5 M^−1s^−1, in the presence or absence of [Pd (C^2,N-(R+dmpa)(dppf)]N3.

Compound: C[C@H]1c2cccc[c]2[Pd-2]([Cl])([P+](c2ccccc2)(c2ccccc2)[c-]2cccc2)[N+]1(C)C.C[C@H]1c2cccc[c]2[Pd-2]([Cl])([P+](c2ccccc2)(c2ccccc2)[c-]2cccc2)[N+]1(C)C.[Fe+2] (stereo partly drawn) [4a, [Pd2(C^2,N-S-dmpa)2(μ-dppf)Cl2]]
Signs and symptoms ([1]; 500 mg/kg): Lack of acute toxicity signs

Compound: C[C@@H]1c2cccc[c]2[Pd-2]([Cl])([P+](c2ccccc2)(c2ccccc2)[c-]2cccc2)[N+]1(C)C.C[C@@H]1c2cccc[c]2[Pd-2]([Cl])([P+](c2ccccc2)(c2ccccc2)[c-]2cccc2)[N+]1(C)C.[Fe+2] (stereo partly drawn) [4b, [Pd2(C^2,N-R+ dmpa)2(μ-dppf)Cl2]]
Signs and symptoms ([1]; 10 mg/kg, listed as R(^+)dmpa Cl^− dppf (1:1), 10 mg/kg): Signs of conjunctivitis

Compound: C[C@H]1c2cccc[c]2[Pd-2]([Cl])([P+](c2ccccc2)(c2ccccc2)[c-]2cccc2)[N+]1(C)C.[Fe+2].c1ccc(P(c2ccccc2)[c-]2cccc2)cc1 (stereo partly drawn) [[Pd(C^2,N-(S-dmpa)(dppf)Cl]]
life extension of animals holding the ascitic tumor of Ehrlich (Ehrlich's ascitic tumor): increased the life extension | morphological aspect of treated HL60 cells (HL60 cells): aspects of an apoptosis cell

Compound: NCCCC[C@H](N[C@@H](CCc1ccccc1)C(=O)O)C(=O)N1CCC[C@H]1C(=O)O [lisinopryl]
inhibition of murine plasma activity for ACE (ACE): 100%

inhibition of Cathepsin B (Cathepsin B): 81% | product formation constant reduced to (Cathepsin B): 36 | reduction of kcat in the presence of the compound (Cathepsin B): 5.6 times | α (disturbance standard of KS) (Cathepsin B): 0.19±0.02 | β (disturbance standard of Vmax, kcat) (Cathepsin B): 0.18±0.02 | β/α (Cathepsin B): 1.1±0.1 | increase of the affinity between Cathepsin B and the substrate Z-Phe-Arg-MCA (Cathepsin B; in the presence of the compound): 5.3 time | Ki (Cathepsin B; read-out: dissociation constant KH, compound linked to free Cathepsin B (E)): 12 ± 1 µM | Ki (Cathepsin B; read-out: dissociation constant αKH, compound linked to the enzyme-substrate (ES) complex): 2.4 ± 0.3 µM | Ks value in the presence of the organometal compound (Cathepsin B; reduced from 110±15 without compound): 21 ± 2 µM
Compound: [Pd(C^2,N-(R+dmpa)(dppf)]N3 [2a]
